The source of these data is patent publication US4570005A, “Process for the preparation of 2-arylpropyl ether or thioether derivatives” (priority 1980, dated 1986).

Converted amounts (≈) assume the structure as drawn.

The subject of series [1] is resistant green rice leafhopper (collected at Nakagawara). Description: Test 3: Effect on Resistant Green Rice Leafhopper (collected at Nakagawara). It counts as in vivo, Nephotettix cincticeps Uhler (Green rice leafhopper). As to conditions: Nephotettix cincticeps, 24 h, read-out: Mortality (%), Green Rice Leafhopper Collected at Nakagawara. The method in brief:
(§1)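 Ten adult females per pot, either resistant (Nakagawara) or sensitive (Chigasaki), were caged on air-dried rice seedlings (2–3 leaves) sprayed at 3 ml/pot with 100 or 20 ppm of an emulsifiable concentrate dilution. Dead and living insects were counted after 24 hours; mortality is the mean of three pots.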

The nature of another series: Test 8: Fish Toxicity. The series is classed as in vivo. As to conditions: carp, water; concentration at which 1/2 of the test fishes were killed within 48 hours; read-out: Fish Toxicity, TLm48. As for the experimental part:
A water tank having a width of 60 cm, a length of 30 cm and a height of 40 cm was filled with water, and 10 yearling carps having a body length of about 5 cm were set free in the tank and adapted to the environment in the tank. A test compound was applied so that the concentration in water was 10, 1 or 0.1 ppm. After 48 hours, the numbers of killed and living carps were counted and the influences on the fishes were examined.

The next series has as its system two-spotted spider mite. Description: Test 6: Effect on Two-Spotted Spider mite Adults. The series is classed as in vivo. As to conditions: Tetranychus urticae; 100 ppm; adults; 24 hours; 25° C; read-out: Mortality (%). As for the experimental part:
To a mixture of 20 parts of the compound of the present invention and 20 parts of Sorpol SM-200 (registered tradename for the product supplied by Toho Chemical Industrial Co., Ltd.) was added 60 parts of xylol, and the mixture was suffciently blended. The obtained emulsifiable concentrate was diluted at a predetermined concentration with distilled water, and the obtained dilution was used.
A kidney bean leaf disc perforated with a cork borer (15 mm in diameter) was placed on water-impregnated absorbent cotton (2 cm×2 cm), and 10 adults of two-spotted spider mite were set free. A chemical dilution having a concentration of 100 ppm was applied with an applicator in an amount of 3 ml.
The leaf disc-placed absorbent cotton was placed in a thermostat chamber maintained at 25° C. After 24 hours, the number of killed adults was counted and the mortality was calculated. The test was made on three leaf discs and the average value was calculated.

The test system of series [2] is tobacco cutworm. Description: Test 1: Effect on Tobacco Cutworm (leaf immersion), mortality after 24 hours. It counts as in vivo. As to conditions: second-instar larvae, 25° C. The method in brief: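 Second-instar tobacco cutworm larvae were kept at 25 °C on air-dried sweet-potato leaves that had been immersed for 10 s in test dilutions of 100 or 20 ppm from an emulsifiable concentrate. Mortality was scored at 24 h as the mean of three cups.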

The nature of series [3]: Test 9: Toxicity Test (acute oral toxicity, mice). As to conditions: mouse, in vivo, po. As for the experimental part:
A predetermined amount of a solution or suspension of a test compound in corn oil was orally administered to male mice having a body weight of 19 to 23 g (0.2 ml per 10 g of the body weight). After 7 days, the number of killed mice was counted and the influences on the mice were examined.

The subject of series [4] is tobacco cutworm. The experiment in a line: Test 2: Tobacco Cutworm Larva Dipping Test, mortality after 24 hours. It counts as in vivo. As to conditions: 24 hours. The method in brief: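 Second- and fifth-instar larvae dipped 5 s in a water dilution of an emulsifiable concentrate at 100 or 20 ppm, blotted, then held on artificial diet at 25° C. Dead and living larvae counted after 24 hours; mortality averaged over three cups.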

The test system of series [5] is sensitive green rice leafhopper (collected at Chigasaki). Description: whole plant or invertebrate. The series is classed as in vivo. As to conditions: Nephotettix cincticeps, sensitive female adults, 24 hours, read-out: Mortality (%), Green Rice Leafhopper Collected at Chigasaki. The method in brief:
as §1

The test system of another series is green peach aphid. Description: Test 5: Effect on Green Peach Aphid. As to conditions: Myzus persicae; 100 ppm; mortality class; 24 hours; read-out: Insecticidal Activity. The series is classed as in vivo. The method in brief: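 Eggplant seedlings with 3–4 leaves were infested with aphids and sprayed with a 100 ppm aqueous dilution of an emulsifiable concentrate, then kept in a glasshouse. Living insects were counted after 24 h. Mortality is averaged over three pots and graded A (>95%), B (80–95%), C (50–80%) or D (<50%).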

The test system of a further series is diamond back moth. The experiment in a line: Test 4: Effect on Diamond Back Moth. As to conditions: Plutella, third-instar larvae, 24 hours, read-out: Mortality (%). It counts as in vivo. The method in brief:
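Compound formulated as an emulsifiable concentrate, diluted in water to 100 or 20 ppm and sprayed at 3 ml per cup onto cabbage leaves holding 10 third-instar larvae. Mortality counted after 24 hours; mean of three cups.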

For the next series, the system named is German cockroach. The experiment in a line: Test 7: Effect on German Cockroach. It counts as in vivo. As to conditions: Blattella germanica, male adults, agonized and killed after 24 hours, read-out: Mortality (%); for mortality at 10 mg/m2: 10 mg/m^2; for mortality at 50 mg/m2: 50 mg/m^2. The method in brief:
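Petri dish floors were treated with 50 or 10 mg/m2 of compound (diluted emulsifiable concentrate) and air-dried. Ten male adult German cockroaches per dish were held at 25° C. Agonized and dead insects were counted after 24 hours, averaging two dishes.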

Where [6] appears, read: fifth-instar larvae, read-out: Motality (%), Fifth-Instar Larvae.
Setting [7] is: second-instar larvae, read-out: Motality (%), Second-Instar Larvae.

As a reminder, the LD50 is the dose at which mortality reaches 50%. High values mean lower toxicity, low ones greater toxicity. Consider `CC(C)(COCc1cccc(Oc2ccccc2)c1)c1ccc(Cl)cc1` [Compound 49, 3-Phenoxybenzyl 2-(4-chlorophenyl)-2-methylpropyl ether], for which the mortality at 20 ppm (in series [1]; in the series with tobacco cutworm [2]; in the series on tobacco cutworm [4] (setting [6]); in the series on tobacco cutworm [4] (setting [7]); in series [5]; in the series with diamond back moth) was 100% throughout. Further, the mortality at 100 ppm (in [1]; with two-spotted spider mite; in the series on tobacco cutworm [2]; in the series on tobacco cutworm [4] (setting [6]); in the series with tobacco cutworm [4] (setting [7]); in series [5]) was 100% throughout. The figures for the mortality at 100 ppm in the series on green peach aphid and in the series with diamond back moth were more than 95% and 100%, respectively. The LC50 at 48 h in the series “Test 8: Fish Toxicity” is more than 10 µg/mL. The compound further registered an LD50 at 168 h in series [3] of more than 500 mg/kg. In the series on German cockroach, the mortality at 10 mg/m2 was 100%. Besides, the mortality at 50 mg/m2 in the series on German cockroach was 100%.
Consider `COc1ccc(C(C)(C)COCc2cccc(Oc3ccccc3)c2)cc1` [Compound 1, 3-Phenoxybenzyl 2-(4-methoxyphenyl)-2-methyl propyl ether], for which the mortality at 20 ppm in series [1] and in series [5] was 100% throughout. Moreover, the mortality at 100 ppm in series [1] was 100%; with two-spotted spider mite, 100%; in series [5], 100%; in the series with green peach aphid, 80 to 95%. Besides, in “Test 8: Fish Toxicity”, the LC50 at 48 h was more than 10 µg/mL. This compound registered an LD50 at 168 h in series [3] of more than 500 mg/kg. In addition, in the series with German cockroach, the mortality at 10 mg/m2 turned out to be 100%. The mortality at 50 mg/m2 in the series on German cockroach worked out at 100%.
As for `CC(C)(COCc1cccc(Oc2ccccc2)c1)c1ccc2c(c1)OCO2` [Compound 7, 3-Phenoxybenzyl 2-(3,4-methylenedioxyphenyl)-2-methylpropyl ether], the mortality at 20 ppm was 100% in [1]; 80% in the series with tobacco cutworm [2]; 50% with tobacco cutworm [4] (setting [6]); 60% in the series on tobacco cutworm [4] (setting [7]); 90% in series [5]; 80% in the series on diamond back moth. For the same compound, the mortality at 100 ppm (in series [1]; in the series with two-spotted spider mite; in the series on tobacco cutworm [2]; with tobacco cutworm [4] (setting [6]); with tobacco cutworm [4] (setting [7]); in [5]) was 100% in each case. In addition, the mortality at 100 ppm in the series on green peach aphid was more than 95%; in the series on diamond back moth it was 100%. Further, the LC50 at 48 h in the series “Test 8: Fish Toxicity” is more than 10 µg/mL. In [3], this compound displayed an LD50 at 168 h of more than 500 mg/kg. Moreover, the mortality at 10 mg/m2 in the series on German cockroach is 100%. The mortality at 50 mg/m2 in the series with German cockroach amounted to 100%.
Turning to `CCC(C)(COCc1cccc(Oc2ccccc2)c1)c1ccc(Cl)cc1` (centres unmarked) [Compound 50, 3-Phenoxybenzyl 2-(4-chlorophenyl)-2-ethylpropyl ether], the mortality at 20 ppm is 90% in series [1]; 100% in the series with tobacco cutworm [2]; 90% with tobacco cutworm [4] (setting [6]); 100% in the series on tobacco cutworm [4] (setting [7]); 80% in series [5]; 100% in the series with diamond back moth. Besides, the mortality at 100 ppm (in [1]; with two-spotted spider mite; in the series on tobacco cutworm [2]; with tobacco cutworm [4] (setting [6]); with tobacco cutworm [4] (setting [7]); in [5]) was 100% throughout. Further, the mortality at 100 ppm is more than 95% in the series with green peach aphid and 100% in the series on diamond back moth. Also, the LC50 at 48 h in the series “Test 8: Fish Toxicity” is more than 10 µg/mL. This compound also displayed an LD50 at 168 h in [3] of more than 500 mg/kg. Further, the mortality at 10 mg/m2 in the series on German cockroach came to 100%. For the same compound, the mortality at 50 mg/m2 in the series on German cockroach is 100%.
With `CC(C)(COCc1cccc(Oc2ccc(F)cc2)c1)c1ccc(OC(F)F)cc1` [Compound 11, 3-(4-Fluorophenoxy)benzyl 2-(4-difluoromethoxyphenyl)-2-methylpropyl ether], the mortality at 20 ppm is 100% in series [1]; 100% in the series on tobacco cutworm [2]; 70% with tobacco cutworm [4] (setting [6]); 90% in the series with tobacco cutworm [4] (setting [7]); 100% in series [5]; 90% with diamond back moth. Also, the mortality at 100 ppm (in series [1]; in the series with two-spotted spider mite; in the series on tobacco cutworm [2]; in the series on tobacco cutworm [4] (setting [6]); with tobacco cutworm [4] (setting [7]); in series [5]) was 100% in each case. The mortality at 100 ppm is more than 95% in the series on green peach aphid and 100% in the series with diamond back moth. In addition, the LC50 at 48 h in the series “Test 8: Fish Toxicity” is 0.01 to 0.05 µg/mL (≈ 0.024 to 0.12 µM). For the same compound, the LD50 at 168 h in series [3] was more than 500 mg/kg. In the series with German cockroach, the mortality at 10 mg/m2 is 100%. Moreover, the mortality at 50 mg/m2 in the series with German cockroach came to 100%.
On to `COc1ccc(Oc2cccc(COCC(C)(C)c3ccc(Cl)c(Cl)c3)c2)cc1` [Compound 41, 3-(4-methoxyphenoxy)benzyl 2-(3,4-dichlorophenyl)-2-methylpropyl ether], for which the mortality at 20 ppm in [1] and in [5] was 100% in each case. In addition, the mortality at 100 ppm was 100% in [1], 100% in the series on two-spotted spider mite, 100% in [5] and more than 95% with green peach aphid. Moreover, the LC50 at 48 h in the series “Test 8: Fish Toxicity” is more than 10 µg/mL. The LD50 at 168 h in [3] was more than 500 mg/kg. Moreover, in the series on German cockroach, the mortality at 10 mg/m2 was 100%. For the same compound, the mortality at 50 mg/m2 with German cockroach is 100%.
On to `CC(C)(C)c1ccc(C(C)(C)COCc2cccc(Oc3ccccc3)c2)cc1` [Compound 105, 3-Phenoxybenzyl 2-(4-tert-butylphenyl)-2-methylpropyl ether], for which the LC50 at 48 h in the series “Test 8: Fish Toxicity” is more than 1 µg/mL. Moreover, the mortality at 100 ppm is 100% in the series on two-spotted spider mite and 80 to 95% in the series on green peach aphid. In addition, in series [3], the LD50 at 168 h was more than 500 mg/kg.
With `CC(C)(CSCc1cccc(Oc2ccccc2)c1)c1ccc(Cl)cc1` [Compound 20, 3-Phenoxybenzyl 2-(4-chlorophenyl)-2-methylpropyl thioether], the mortality at 20 ppm in [1] turned out to be 80%; with tobacco cutworm [2], 100%; with tobacco cutworm [4] (setting [6]), 80%; with tobacco cutworm [4] (setting [7]), 90%; in [5], 50%; in the series on diamond back moth, 100%. Further, the mortality at 100 ppm (in series [1]; with two-spotted spider mite; in the series with tobacco cutworm [2]; with tobacco cutworm [4] (setting [6]); in the series with tobacco cutworm [4] (setting [7]); in [5]) was 100% throughout. Besides, the mortality at 100 ppm with green peach aphid is more than 95%; in the series with diamond back moth, 100%. Further, in the series “Test 8: Fish Toxicity”, the LC50 at 48 h was more than 10 µg/mL. The compound further registered an LD50 at 168 h in series [3] of more than 500 mg/kg.
Regarding `CCCCOc1ccc(C(C)(C)COCc2cccc(Oc3ccccc3)c2)cc1` [Compound 69, 3-Phenoxybenzyl 2-[4-(n-butoxy)phenyl]-2-methylpropyl ether], in the series “Test 8: Fish Toxicity”, the LC50 at 48 h was more than 1 µg/mL. In addition, the mortality at 100 ppm is 60% in the series with two-spotted spider mite and more than 95% with green peach aphid. Further, in [3], the LD50 at 168 h was more than 500 mg/kg.
